Where “and” joins values, the source holds several entries; their conditions need not be identical. Equal entries are not always repeated.
Legend:
Assay in all cases: UDP-Glo glucosyl transferase assay, purified enzyme
Type in all cases: biochemical
[1] = target: T1, Zea mays bx9 glucosyl transferase (C-terminally his tagged SEQ ID NO: 1) (Zea mays, UniProt B4G072)
T1 construct: His tag (C); made in house; host or cells: E. coli BL21 (DE3), pET24a
T1 sequence (B4G072 1-462): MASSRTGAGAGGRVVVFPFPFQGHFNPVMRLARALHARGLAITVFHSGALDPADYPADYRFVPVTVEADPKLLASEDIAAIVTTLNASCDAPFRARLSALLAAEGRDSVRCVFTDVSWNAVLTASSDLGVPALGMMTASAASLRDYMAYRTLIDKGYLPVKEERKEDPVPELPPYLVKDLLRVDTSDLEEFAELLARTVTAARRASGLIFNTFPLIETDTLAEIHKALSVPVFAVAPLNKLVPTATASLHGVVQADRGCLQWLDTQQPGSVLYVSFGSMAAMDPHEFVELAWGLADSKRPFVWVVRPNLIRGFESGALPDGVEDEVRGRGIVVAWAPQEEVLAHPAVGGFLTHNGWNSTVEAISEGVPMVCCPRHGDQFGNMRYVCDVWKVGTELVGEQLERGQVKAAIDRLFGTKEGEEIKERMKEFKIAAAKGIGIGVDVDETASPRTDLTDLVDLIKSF

[2] = target: T2, Zea mays bx8 glucosyl transferase (his tagged SEQ ID NO: 2) (Zea mays, UniProt Q8W2B7); conditions: for Activity: herbicide 0.500 mM, N-terminally his tagged, limit of detection about 0.001
T2 construct: His tag (N); made in house; host or cells: E. coli BL21 (DE3), pET24a
T2 sequence (Q8W2B7 1-459): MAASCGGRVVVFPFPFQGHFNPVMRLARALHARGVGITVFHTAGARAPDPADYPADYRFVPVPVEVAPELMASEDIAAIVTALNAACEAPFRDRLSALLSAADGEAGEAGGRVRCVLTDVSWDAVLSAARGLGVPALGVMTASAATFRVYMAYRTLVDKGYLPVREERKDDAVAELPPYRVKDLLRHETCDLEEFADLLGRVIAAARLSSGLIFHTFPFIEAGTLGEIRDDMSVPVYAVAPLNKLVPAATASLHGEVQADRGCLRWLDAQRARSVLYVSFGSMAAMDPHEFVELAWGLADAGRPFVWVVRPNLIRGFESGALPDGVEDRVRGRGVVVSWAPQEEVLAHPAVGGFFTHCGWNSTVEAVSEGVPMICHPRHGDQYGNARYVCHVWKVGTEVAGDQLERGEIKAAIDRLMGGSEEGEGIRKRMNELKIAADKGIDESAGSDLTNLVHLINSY
Description: (§1) Glucosyl transferase activity is assayed via measurement of acceptor substrate-dependent production of UDP from ultrapure UDP-glucose using the Promega UDP-Glo™ method and according to the manufacturer's instructions. Assays are run in 96 well microtiter plates.
(§2) Enzyme, typically at a stock concentration of ˜2 mg/ml is diluted to an appropriate concentration in 50 mM K^+ Hepes buffer at pH7.5 containing 0.5 mg/mL bovine serum albumin (BSA) and 5 ul aliquots of this diluted enzyme added to each well of a Perkin Elmer white ½ area 96 well plate. […] Assays are run for an appropriate time (usually 10 to 60 min) so that the amount of UDP formed lies within the most nearly linear part of the UDP standard curve and are stopped with the addition and mixing of 25 ul UDP-Glo™ detection reagent (prepared as described below). Plates are then incubated at room temperature for 60 minutes and then read in a luminescence plate reader (Perkin Elmer Envision 2130 Multilabel Reader). A UDP standard curve is run alongside each set of assays and reagent blank control assays run with DMSO in place of test herbicide. Typically, 300 pmol of UDP corresponds to a Relative Luminescence Unit (RLU) reading of about 1.5E7 and the response curve between 0 and 600 pmol is fitted to a polynomial function (see for example FIG. 2).
(§3) The UDP-Glo™ reagents are made up and used according to the manufacturer's instructions. Thus, Nucleotide Detection Buffer and ATP are combined to make nucleotide detection reagent (NDR) dispensed into aliquots and frozen to be freshly thawed before use.
(§4) Km and kcat values in respect of UDP-glucose are derived by carrying out experiments to measure initial rates over a suitable range of concentrations of UDP glucose out at a fixed near saturating concentration of acceptor substrate. Best fit values of kcat, Km and kcat/Km are obtained by direct fitting of the data to the Michaelis-Menten equation using Graphpad Prism™ software.
The glucosyl transferase activities of the mutant bx8-derived polypeptides expressed in these strains were initially assayed versus herbicide V as described in Example 1. The partly purified C-terminally his tagged w/t bx8 enzyme (SEQ ID No: 2) catalyzed glucosyl transfer to herbicide V at a low rate estimated to be less than about 0.002/s at 1 mM herbicide V which, because of a relatively high background of UDP formation in the DMSO (no substrate reagent control) was difficult to quantify using the luminescence assay. Thus further assays were run by LC/MS using which technique the formation of an O-beta glucosyl glucoside of herbicide V could more easily be confirmed but only quantified in a relative sense. Thus the various derivatives of C-terminally his tagged Zea mays bx8 SEQ ID No:2 were cloned and expressed in E. coli BL21 (DE3) as described in Example 1 and assayed in plates as crude extracts, as in Example 2, but monitored by LCMS rather than the luminescence assay.
Assays were carried out as described in Example 1. Partly purified C-terminally his tagged w/t Larkspur enzyme (SEQ ID No 10 with a 6 amino acid C-terminal tag) catalyzed glucosyl transfer to herbicide V at a rate estimated to be about 0.0065/s/pmol at 1 mM herbicide V. The similarly-tagged w/t bx-like enzymes from rye (SEQ ID No 11) and from wheat (SEQ ID No 4) were also active but only at levels close to the detection limit at ˜0.0015/s/pmol. Further examples of assay results from further experiments are depicted in Table 14. […]

[3] = system: Avena bx glucosyl transferase (SEQ ID NO 8); conditions: herbicide 0.500 mM; limit of detection about 0.001
Description: as §1, §2, §3, §4
(§5) DNA sequences, optimized for E. coli codon usage, corresponding to SEQ IDs 1-15, encoding BX8 and BX9 orthologue polypeptides derived from a range of species (as depicted in FIG. 1) were synthesized by Genewiz (South Plainfield, USA) with 5′ NdeI and 3′ XhoI restriction sites. The various orthologues were synthesized with either a N-terminal 6×His purification tag or C-terminal 6×His purification tag (i.e. tried both ways to achieve best expression of activity) and cloned into the E. coli expression plasmid pET24a (Novagen) via the NdeI and XhoI restriction sites. Expression, purification and assay was as described in Example 1.
(§6) Assays were carried out as described in Example 1. Partly purified C-terminally his tagged w/t Larkspur enzyme (SEQ ID No 10 with a 6 amino acid C-terminal tag) catalyzed glucosyl transfer to herbicide V at a rate estimated to be about 0.0065/s/pmol at 1 mM herbicide V. The similarly-tagged w/t bx-like enzymes from rye (SEQ ID No 11) and from wheat (SEQ ID No 4) were also active but only at levels close to the detection limit at ˜0.0015/s/pmol. Further examples of assay results from further experiments are depicted in Table 14. All of the proteins were C-terminally his tagged versions of the sequences referenced except for the Zea mays bx8 SEQ ID NO: 2 which was N-terminally his tagged.

[4] = system: wheat bx glucosyl transferase (SEQ ID NO 4); conditions: for Activity: herbicide 0.500 mM, limit of detection about 0.001
Description: as §1, §2, §3, §4, §5, §6

[5] = 0.5 mM UDP-glucose, 25 C, pH 7.5, DMSO reagent blank as control
[6] = control = inactive H24A mutant of bx9 (asterisk)
[7] = herbicide 0.500 mM, limit of detection about 0.001
[8] = herbicide mM: V 0.300, VI 0.250, VII 0.210, IV, VIII, XI, XXI, XX, XVIII, XVI, XV, XIV 0.200, others 1.000

| Compound | kcat [1, 5] | kcat [1, 6] | Activity [1, 7] | Activity [1, 8] | Activity [2] | Activity [3] | Activity [4] | rate of glucosyl transfer ([2]; 1 mM herbicide V, partly purified C-terminally his tagged enzyme) | rate of glucosyl transfer ([4]; herbicide V, close to the detection limit) |
| --- | --- | --- | --- | --- | --- | --- | --- | --- | --- |
| CON1C(=O)N(c2cc(C(F)(F)F)ccn2)C(O)[C@@H]1C (stereo partly drawn) [Compound VI] | 0.037 s⁻¹ and 0.044 s⁻¹ | 0.0430 s⁻¹ | 0.013 pmol/sec/pmol enzyme | 0.012 pmol/sec/pmol enzyme | 0.000 pmol/sec/pmol enzyme | 0.002 pmol/sec/pmol enzyme | 0.000 pmol/sec/pmol enzyme | – | – |
| Cc1cnc(N2C(=O)N(C)CC2O)cc1C(F)(F)F (stereo not drawn) [XVIII] | 0.0040 s⁻¹ | – | 0.002 pmol/sec/pmol enzyme | 0.001 pmol/sec/pmol enzyme | 0.001 pmol/sec/pmol enzyme | 0.003 pmol/sec/pmol enzyme | 0.000 pmol/sec/pmol enzyme | – | – |
| CN1CC(O)N(c2cc(C(F)(F)F)c(Cl)cn2)C1=O (stereo not drawn) [XI] | – | – | 0.000 pmol/sec/pmol enzyme | 0.000 pmol/sec/pmol enzyme | 0.001 pmol/sec/pmol enzyme | 0.002 pmol/sec/pmol enzyme | 0.001 pmol/sec/pmol enzyme | – | – |
| CN1CC(O)N(c2cc(C(F)(F)F)ccn2)C1=O (stereo not drawn) [Compound V] | 0.012 s⁻¹ and 0.021 s⁻¹ | 0.0181 s⁻¹ | 0.005 pmol/sec/pmol enzyme | 0.005 pmol/sec/pmol enzyme | 0.000 pmol/sec/pmol enzyme | 0.002 pmol/sec/pmol enzyme | 0.001 pmol/sec/pmol enzyme | less than 0.002 /s | ~0.0015 s⁻¹ pmol⁻¹ |
